The text below walks through data of patent US9676760B2, “Fused heterocyclic compounds as ion channel modulators” (Gilead Sciences, Inc., priority 2011, dated 2017).

The target of data set [1] is hERG potassium channel (Homo sapiens, UniProt Q12809). Briefly: hERG screening assay (PatchXpress, CHO cells). The class given is cell-based. More on the design: hERG: unit not given here. The protocol: Compounds were also tested for their effect to block the hERG K^+ channel.
Compounds were screened to test their activity in blocking the hERG potassium channel at AVIVA Biosciences (San Deigo, Calif., USA). The hERG channel is heterologously expressed in a CHO (Chinese Hamster Ovary) cell line. Cells were maintained with standard tissue culture procedures and stable channel expression was maintained with 500 μg/mL G418 in the culture medium. Cells were harvested for testing on the PatchXpress 7000A automated patch clamp with Accumax (Innovative Cell Technologies, San Diego, Calif.) to isolate single cells.
The following solutions were used for electrophysiological recordings. The external solution contained: 2 mM CaCl2; 2 mM MgCl2; 4 mM KCl; 150 mM NaCl; 10 mM Glucose; 10 mM HEPES (pH 7.4 with 1M NaOH; osmolarity, ˜310 mOsm).
hERG channels were activated when the voltage was first stepped to −50 mV for 300 ms from the −80 mV holding potential and then stepped to +20 mV for 5 seconds. At +20 mV the channels open and then largely inactivate, so the currents are relatively small. Upon returning to −50 mV from +20 mV, hERG currents transiently become much larger as inactivation is rapidly removed and then the channel closes. The first step to −50 mV for 300 ms was used as a baseline for measuring the peak amplitude during the step to −50 mV after channel activation. The peak tail current at −50 mV was measured both under control conditions and after addition of compound, each cell serving as its own control.
All compounds were prepared as 10 mM DMSO stocks in glass vials. Stock solutions were mixed by vigorous vortexing and sonication for about 2 minutes at room temperature. For testing, compounds were diluted in glass vials using an intermediate dilution step in pure DMSO and then further diluted to working concentrations in external solution. Dilutions were prepared no longer than 20 minutes before use.
For the electrophysiological recordings, after achieving the whole-cell configuration, cells were monitored for 90 seconds to assess stability and washed with external solution for 66 seconds. The voltage protocol described above was then applied to the cells every 12 seconds and throughout the whole procedure. Only cells with stable recording parameters and meeting specified health criteria were allowed to enter the compound addition procedure.
External solution containing 0.1% DMSO (vehicle) was applied to the cells first to establish the control peak current amplitude. After allowing the current to stabilize for 3 to 5 minutes, 1 μM and then 10 μM test compounds were applied. Each compound concentration was added 4 times and cells were kept in test solution until the effect of the compound reached steady state or for a maximum of 12 minutes. […] Washout in the external solution compartment was performed until the recovery of the current reached steady state.
In general terms: Block of hERG is tested as a sign of cardiac risk.

Data set [2] concerns Female New Zealand rabbits. Briefly: Ischemia-induced ST segment elevation in anesthetized rabbits. The class given is in vivo, rabbit. The protocol: This study was undertaken to determine the anti-ischemic effects of compounds of the present disclosure in an in vivo rabbit model.
Female New Zealand rabbits (3.0-4.0 kg) were purchased from Western Oregon Rabbitry. Animals were housed on a 12-h light and dark cycle and received standard laboratory chow and water. All experiments were performed in accordance with the Guide for the Care and Use of Laboratory Animals published by The National Research Council and with the experimental protocol approved by the Institutional Animal Care Committee of Gilead Sciences, Inc.
Rabbits were anesthetized with ketamine (35 mg/kg) and xylazine (5 mg/kg) intramuscular injection (im). A tracheotomy was performed and the trachea was intubated with an endotracheal tube. The animal was ventilated with room air supplemented with oxygen using a pressure control animal ventilator (Kent Scientific Corp., Torrington, Conn.) at a respiratory rate of 40 strokes/min and peak inspiration pressure of 10 mmH2O, which was adjusted to keep blood gases and pH within the physiological range (iSTAT clinic analyzer, Heska Corp.; Waukesha, Wis.). The left femoral artery was cannulated for the measurement of blood pressure (BP). Blood samples were also withdrawn from femoral artery. The right external jugular vein was cannulated for drug/vehicle administration. Needle electrodes were inserted subcutaneously into the limbs for recording of the surface electrocardiogram (ECG). The heart was exposed via an incision in the 4th intercostal space (4th and/or 5th ribs were cut for a clear surgical vision). The chest was opened and a pericardial cradle was formed using 4 retractors. A coronary artery occluder, comprised of a snare made of 5 cm PE-10 tubing with a 6-0 Prolene polypropylene suture in it, was placed loosely around the left anterior descending artery (LAD) at its origin. Two unipolar electrodes, made with teflon coated silver wire attached to a small patch of filter paper, were attached on the surface of the ischemic and normal regions of the left ventricle to record epicardial electrocardiogram. Reference electrodes were placed in the open incision of the neck. The body temperature of the animal was monitored via a rectal thermometer and maintained at 37-40° C. by adjusting the surface temperature of the surgical table. Regional ischemia (15 min) was induced by ligating the LAD followed by 15 min of reperfusion caused by releasing the ligation. The heart was excised at the end of the experiment and the LAD was re-ligated. The ischemic area was visualized by perfusing the heart with 1% Evans blue in saline and calculated as a percentage of total ventricular weight. Rabbits with ischemic area less than 10% or larger than 25% were excluded from the analysis. Animals were randomly assigned to vehicle and test compound groups. Test compounds was dissolved in 5% NMP, 30% PG, 45% PEG 400 and 20% de-ionized water (dH2O). Test compound was given as an iv bolus at 0.1, 0.2 and 0.4 mg/kg. After 30 min of dosing, the heart was subjected to 15 min of ischemia followed by 15 min of reperfusion.

Data set [3] deals with T1, wild-type human cardiac sodium channel, hNav1.5 (Homo sapiens, UniProt Q14524). Briefly: Late INa screening assay (QPatch whole cell patch clamp, HEK293). The data set is classed as cell-based. The method, boiled down: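 HEK293 stably expressing hNav1.5 without beta subunits, recorded at 23-25° C. Late current was induced by 10 μM tefluthrin. Cells were depolarized from −120 mV to −20 mV for 250 ms at 0.1 Hz. Compounds were tested at 1 μM in extracellular solution, with baseline taken in 0Na-ECF; output is percent block of late INa.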
For orientation: In patch-clamp work, channel activity is measured electrically.

For data set [4], the target named is T1, wild-type human cardiac sodium channel, hNav1.5. Briefly: Peak INa screening assay (tonic and use-dependent block). The class given is cell-based. To be noted: compound at 1 μM. The method, boiled down: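 Whole-cell automated patch clamp (QPatch) at 23–25°C on HEK293 cells stably expressing hNav1.5 alpha subunit only, with CsF/CsCl pipette solution, pH 7.4. Compound at 1 μM in extracellular solution; bath Na+ could be cut to 20 mM with a nonpermeant cation. Tonic block measured at 0.1 Hz, use-dependent block at 3 Hz.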

T1 sequence (Q14524 whole entry): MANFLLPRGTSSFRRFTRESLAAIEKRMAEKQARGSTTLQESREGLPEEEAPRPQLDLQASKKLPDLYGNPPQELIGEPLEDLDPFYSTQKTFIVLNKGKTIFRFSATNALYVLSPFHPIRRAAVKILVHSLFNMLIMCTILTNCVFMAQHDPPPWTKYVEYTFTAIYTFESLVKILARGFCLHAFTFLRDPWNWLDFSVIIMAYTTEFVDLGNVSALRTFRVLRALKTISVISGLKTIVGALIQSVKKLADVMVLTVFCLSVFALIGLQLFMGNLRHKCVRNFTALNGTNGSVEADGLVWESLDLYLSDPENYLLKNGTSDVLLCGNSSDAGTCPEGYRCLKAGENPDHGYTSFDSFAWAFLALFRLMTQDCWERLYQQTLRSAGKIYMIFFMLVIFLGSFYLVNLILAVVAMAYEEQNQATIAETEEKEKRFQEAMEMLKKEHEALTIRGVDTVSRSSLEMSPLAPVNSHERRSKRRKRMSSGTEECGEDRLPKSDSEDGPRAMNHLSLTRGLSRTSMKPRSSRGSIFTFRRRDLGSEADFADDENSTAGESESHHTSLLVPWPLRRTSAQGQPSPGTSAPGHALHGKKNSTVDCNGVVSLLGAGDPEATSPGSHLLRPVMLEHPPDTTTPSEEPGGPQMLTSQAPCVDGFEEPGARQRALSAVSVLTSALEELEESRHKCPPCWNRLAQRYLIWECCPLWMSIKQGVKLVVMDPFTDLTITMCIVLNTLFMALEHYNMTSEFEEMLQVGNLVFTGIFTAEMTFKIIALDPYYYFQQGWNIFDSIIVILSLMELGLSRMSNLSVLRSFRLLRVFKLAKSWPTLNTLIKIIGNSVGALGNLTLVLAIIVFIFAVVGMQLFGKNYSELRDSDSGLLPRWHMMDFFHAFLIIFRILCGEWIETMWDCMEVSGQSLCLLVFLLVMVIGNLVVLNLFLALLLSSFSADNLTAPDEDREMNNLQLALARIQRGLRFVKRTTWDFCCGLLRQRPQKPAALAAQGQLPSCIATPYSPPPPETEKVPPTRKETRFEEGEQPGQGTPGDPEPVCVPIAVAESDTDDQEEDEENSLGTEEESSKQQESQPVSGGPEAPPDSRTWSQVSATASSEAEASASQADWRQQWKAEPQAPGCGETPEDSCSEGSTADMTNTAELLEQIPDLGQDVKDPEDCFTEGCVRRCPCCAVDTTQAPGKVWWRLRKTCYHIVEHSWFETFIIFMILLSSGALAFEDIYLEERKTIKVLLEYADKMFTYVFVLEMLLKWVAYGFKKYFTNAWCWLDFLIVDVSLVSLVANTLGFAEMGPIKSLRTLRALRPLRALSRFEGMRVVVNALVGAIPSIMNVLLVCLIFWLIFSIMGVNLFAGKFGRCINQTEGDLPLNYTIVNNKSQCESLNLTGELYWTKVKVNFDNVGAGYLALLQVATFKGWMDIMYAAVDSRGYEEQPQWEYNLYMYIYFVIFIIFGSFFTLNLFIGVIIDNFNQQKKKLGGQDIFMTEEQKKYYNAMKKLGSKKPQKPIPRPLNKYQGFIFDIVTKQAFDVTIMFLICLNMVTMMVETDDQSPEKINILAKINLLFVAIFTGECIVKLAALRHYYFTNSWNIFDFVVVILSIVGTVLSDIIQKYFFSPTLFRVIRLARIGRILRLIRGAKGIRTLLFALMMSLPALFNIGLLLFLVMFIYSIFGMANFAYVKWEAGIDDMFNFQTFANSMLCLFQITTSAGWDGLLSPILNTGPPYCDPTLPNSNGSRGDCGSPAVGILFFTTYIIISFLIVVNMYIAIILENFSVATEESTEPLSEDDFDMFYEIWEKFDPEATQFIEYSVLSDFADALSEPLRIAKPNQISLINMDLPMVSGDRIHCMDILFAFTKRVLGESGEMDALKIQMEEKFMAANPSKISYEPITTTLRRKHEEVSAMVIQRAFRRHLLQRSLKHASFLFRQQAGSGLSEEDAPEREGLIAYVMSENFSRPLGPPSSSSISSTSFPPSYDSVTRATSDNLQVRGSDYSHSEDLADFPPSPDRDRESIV
Sequence of hERG potassium channel (Q12809 whole entry): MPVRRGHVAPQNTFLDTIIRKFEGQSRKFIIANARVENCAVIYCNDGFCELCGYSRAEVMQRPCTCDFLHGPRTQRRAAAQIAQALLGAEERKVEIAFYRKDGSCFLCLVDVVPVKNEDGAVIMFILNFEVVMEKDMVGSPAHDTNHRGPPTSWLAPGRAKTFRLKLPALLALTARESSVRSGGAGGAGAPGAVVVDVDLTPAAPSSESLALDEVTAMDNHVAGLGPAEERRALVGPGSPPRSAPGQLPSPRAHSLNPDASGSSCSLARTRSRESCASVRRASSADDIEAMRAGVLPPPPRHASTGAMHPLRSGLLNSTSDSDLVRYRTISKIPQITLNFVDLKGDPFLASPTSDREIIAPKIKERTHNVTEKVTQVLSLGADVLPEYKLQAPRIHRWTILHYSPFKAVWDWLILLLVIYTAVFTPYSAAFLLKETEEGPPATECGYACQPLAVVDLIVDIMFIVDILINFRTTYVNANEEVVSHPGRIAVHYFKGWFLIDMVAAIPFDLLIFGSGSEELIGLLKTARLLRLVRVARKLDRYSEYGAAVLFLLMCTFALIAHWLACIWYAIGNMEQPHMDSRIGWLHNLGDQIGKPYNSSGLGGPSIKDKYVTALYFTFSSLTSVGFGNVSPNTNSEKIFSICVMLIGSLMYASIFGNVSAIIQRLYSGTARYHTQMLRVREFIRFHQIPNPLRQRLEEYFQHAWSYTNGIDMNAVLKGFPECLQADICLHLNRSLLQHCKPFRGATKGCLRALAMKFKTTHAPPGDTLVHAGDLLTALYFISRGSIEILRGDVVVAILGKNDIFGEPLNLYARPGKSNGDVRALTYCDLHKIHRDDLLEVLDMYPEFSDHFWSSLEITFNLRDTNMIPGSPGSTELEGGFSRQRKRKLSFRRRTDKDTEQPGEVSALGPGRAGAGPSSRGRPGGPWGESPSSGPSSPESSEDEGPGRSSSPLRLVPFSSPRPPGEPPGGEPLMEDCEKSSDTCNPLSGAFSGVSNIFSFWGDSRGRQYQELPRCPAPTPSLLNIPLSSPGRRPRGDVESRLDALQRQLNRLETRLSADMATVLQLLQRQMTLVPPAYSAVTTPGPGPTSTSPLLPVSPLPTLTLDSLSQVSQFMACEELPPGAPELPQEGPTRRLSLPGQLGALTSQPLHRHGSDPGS

Consider `O=C1c2cc(-c3ccc(C(F)(F)F)cc3)ccc2OCCN1Cc1ncccn1` [II-61, 4-(pyrimidin-2-ylmethyl)-7-(4-(trifluoromethyl)phenyl)-3,4-dihydrobenzo[f][1,4]oxazepin-5(2H)-one], for which the hERG in data set [1] is reported as less than 10. The “area under curve (AUC) for the ST segment height reduced (vs. control)” value in data set [2] (0.28 μM plasma concentration, iv bolus, 15 min ischemia) was determined as 38%. In addition, the “effect on blood pressure (BP), heart rate (HR) and ECG intervals prior to the ischemia” value in data set [2] (at the plasma concentration levels studied) was “no significant effect”. Moreover, in data set [2] (iv bolus 30 min before 15 min ischemia), the “ischemia-induced ST elevation” value is recorded as “dose-dependently prevented”.

In data set [1], `Cc1cccc(CN2CCOc3ccc(-c4ccc(OC(F)(F)F)cc4)cc3C2=O)n1` [II-17, 4-((6-methylpyridin-2-yl)methyl)-7-(4-(trifluoromethoxy)phenyl)-3,4-dihydrobenzo[f][1,4]oxazepin-5(2H)-one] yielded a hERG of less than 10. In addition, the inhibition at 1 µM in data set [3] (HEK293, % Inhibition at 1 uM, read-out: Late INa*) stood at 59%; in data set [3] (HEK293, percent block of late INa, compound at 1 μM, 10 μM Tefluthrin, read-out: Late INa 1 μM), 59%; in data set [4] (tonic block of peak INa, 0.1 Hz, read-out: Peak TB 1 μM) it was 47%; in data set [4] (use-dependent block of peak INa, 3 Hz, read-out: Peak UDB 1 μM) it was 46%.
